Test results from patent US9573938B2 (priority 2012, dated 2017).

Legend:
HIV-1 integrase [1] = target: T1, HIV-1 integrase (Human immunodeficiency virus type 1 group M subtype B, UniProt P12497); experiment: 3′-processing assay; format: biochemical; conditions: 500 nM integrase, blunt ended 32P-labled 21-mer U5 DNA, 37° C. 1 hour; read-out: IC50 (μM) 3′-Process
Description: (§1) The two metal binding motif of these compounds allows for potential cross reactivity with other drug targets with two metal containing active sites. Compounds were tested for LEDGF independent integration (strand transfer) and 3′ processing based on established protocols (Kessl et al.; J Biol Chem, 2012; 287:16801-16811).
(§2) The 3′-processing was assayed using blunt ended ^32P-labled 21-mer synthetic double stranded U5 DNA. The strand transfer assay used ^32P-labled recessed end 19-mer synthetic double stranded U5 DNA. 500 nM integrase was pre-incubated with compound for 30 minutes on ice in 50 mM MOPS (pH 7.2) buffer containing 2 mM β-mercaptoethanol, 50 mM NaCl and 10 mM MgCl2. 50 nM DNA substrate was added to the reaction and incubated at 37° C. for 1 hour when the reactions were stopped with 50 mM EDTA. The reaction products are subjected to denaturing polyacrylamide gel electrophoresis and visualized using a Storm 860 Phosphorimager (Amersham Biosciencs). The ICs50s of representative compounds of formula (I) as detected with a LEDGF independent integration assay or a 3′-processing assay are shown in the following table.

HIV-1 integrase [2] = target: T1, HIV-1 integrase; experiment: LEDGF independent integration (strand transfer) assay; format: biochemical; conditions: 500 nM integrase, 32P-labled recessed end 19-mer U5 DNA, 37° C. 1 hour
Description: as §1, §2

Row | SMILES | IC50 (HIV-1 integrase [1]) | IC50 (HIV-1 integrase [2])
1 | O=C(O)c1cccc(-c2c[nH]c(=O)c(O)c2)c1 [drawing 240] | 22.2 ± 2.5 µM | 20.5 ± 1.3 µM
2 | O=C(O)c1ccc(-c2c[nH]c(=O)c(O)c2)cc1 [drawing 242] | 7.4 ± 1.6 µM | 50.7 ± 2.9 µM
3 | O=c1[nH]c(-c2ccc(-c3nnn[nH]3)cc2)ccc1O [drawing 241] | 12.6 ± 3.2 µM | 23.7 ± 2.7 µM
4 | O=c1[nH]c(-c2ccc(O)c(O)c2)ccc1O [drawing 237] | 8.2 ± 2.5 µM | 6 ± 0.8 µM
5 | O=c1[nH]cc(-c2ccc(F)cc2)cc1O [drawing 239] | 11.6 ± 1.6 µM | 15.7 ± 0.9 µM
6 | O=c1[nH]c(-c2ccc(-c3nnn[nH]3)cc2)c(-c2ccc(F)cc2)cc1O [drawing 238] | 20.8 ± 5.8 µM | 11.7 ± 1.5 µM
